These results are taken from ChEMBL document CHEMBL5653631, “A Potent and Selective ULK1 Inhibitor Suppresses Autophagy and Sensitizes Cancer Cells to Nutrient Stress” (iScience, 2018).

Molecules are shown by their SMILES.

For test [1], the target named is STE20-like serine/threonine-protein kinase (Homo sapiens) (UniProt Q9H2G2). Put plainly: Inhibition of human recombinant SLK at 40 nM in presence of ATP by radiometric assay relative to control.
Test [2] has as its target Glycogen synthase kinase-3 alpha (Homo sapiens) (UniProt P49840). The test is described as follows: Inhibition of human recombinant GSK3A at 40 nM related to control ULK1.
For test [3], the target named is T1, MAPK/MAK/MRK overlapping kinase (Homo sapiens) (UniProt Q9UQ07).
T1 sequence (whole entry): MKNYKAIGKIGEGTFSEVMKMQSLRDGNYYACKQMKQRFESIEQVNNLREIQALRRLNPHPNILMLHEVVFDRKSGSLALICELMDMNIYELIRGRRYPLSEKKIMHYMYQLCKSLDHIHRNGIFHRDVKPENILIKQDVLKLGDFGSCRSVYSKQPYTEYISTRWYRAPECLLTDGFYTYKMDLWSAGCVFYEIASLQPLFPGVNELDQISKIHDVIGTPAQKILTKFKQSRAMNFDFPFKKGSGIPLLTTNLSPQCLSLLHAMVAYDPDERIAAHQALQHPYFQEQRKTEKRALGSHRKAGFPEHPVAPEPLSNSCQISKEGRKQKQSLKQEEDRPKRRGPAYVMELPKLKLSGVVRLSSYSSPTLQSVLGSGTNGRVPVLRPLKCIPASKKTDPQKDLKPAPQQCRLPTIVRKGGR
Put plainly: Inhibition of human recombinant MOK at 40 nM related to control ULK1.

Test [4] concerns the target Serine/threonine-protein kinase 32B (Homo sapiens) (UniProt Q9NY57). Put plainly: Inhibition of human recombinant YANK2 at 40 nM related to control ULK1.
The target in test [5] is Cyclin-dependent kinase 7 (Homo sapiens) (UniProt P50613). The test is described as follows: Inhibition of human recombinant CDK7 at 500 nM in presence of ATP by radiometric assay relative to control.
In test [6] the target is Mitogen-activated protein kinase kinase kinase kinase 4 (Homo sapiens) (UniProt O95819). The test is described as follows: Inhibition of human recombinant HGK at 500 nM in presence of ATP by radiometric assay relative to control.
The target of test [7] is T2, Serine/threonine-protein kinase D3 (Homo sapiens) (UniProt O94806).
T2 sequence (whole entry): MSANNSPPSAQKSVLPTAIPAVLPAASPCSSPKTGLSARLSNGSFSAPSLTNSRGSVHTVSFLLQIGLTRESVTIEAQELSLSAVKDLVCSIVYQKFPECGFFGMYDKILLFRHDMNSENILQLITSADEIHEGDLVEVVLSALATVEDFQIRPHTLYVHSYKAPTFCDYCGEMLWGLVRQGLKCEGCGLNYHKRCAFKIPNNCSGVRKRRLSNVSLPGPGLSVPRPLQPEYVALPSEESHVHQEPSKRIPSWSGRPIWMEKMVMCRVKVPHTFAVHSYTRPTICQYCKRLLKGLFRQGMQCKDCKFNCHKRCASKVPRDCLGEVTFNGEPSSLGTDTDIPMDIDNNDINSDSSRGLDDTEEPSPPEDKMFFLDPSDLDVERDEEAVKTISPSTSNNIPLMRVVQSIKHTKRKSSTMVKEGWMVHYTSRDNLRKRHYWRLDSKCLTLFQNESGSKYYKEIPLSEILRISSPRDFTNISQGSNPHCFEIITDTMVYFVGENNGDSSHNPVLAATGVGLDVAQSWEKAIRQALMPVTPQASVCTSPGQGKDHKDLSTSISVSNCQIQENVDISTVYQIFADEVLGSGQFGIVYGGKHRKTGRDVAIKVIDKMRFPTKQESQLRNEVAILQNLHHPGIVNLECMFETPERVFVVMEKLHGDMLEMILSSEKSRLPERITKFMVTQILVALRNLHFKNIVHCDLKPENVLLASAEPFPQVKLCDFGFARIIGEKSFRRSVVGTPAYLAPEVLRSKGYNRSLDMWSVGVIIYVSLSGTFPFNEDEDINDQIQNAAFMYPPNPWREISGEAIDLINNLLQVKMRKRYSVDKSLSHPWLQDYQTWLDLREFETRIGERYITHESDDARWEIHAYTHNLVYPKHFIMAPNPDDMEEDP
Put plainly: Inhibition of human recombinant PKD3 at 500 nM in presence of ATP by radiometric assay relative to control.

The target in test [8] is Serine/threonine-protein kinase 26 (Homo sapiens) (UniProt Q9P289). The test is described as follows: Inhibition of human recombinant MST4 at 500 nM related to control ULK1.
Test [9] concerns the target Mitogen-activated protein kinase 14 (Homo sapiens) (UniProt Q16539). Put plainly: Inhibition of human recombinant p38alpha at 500 nM related to control ULK1.
Test [10] concerns the target Focal adhesion kinase 1 (Homo sapiens) (UniProt Q05397). Put plainly: Inhibition of human recombinant FAK at 15 nM in presence of ATP by radiometric assay relative to control.
Test [11] addresses T3, Tyrosine-protein kinase receptor TYRO3 (Homo sapiens) (UniProt Q06418).
T3 sequence (whole entry): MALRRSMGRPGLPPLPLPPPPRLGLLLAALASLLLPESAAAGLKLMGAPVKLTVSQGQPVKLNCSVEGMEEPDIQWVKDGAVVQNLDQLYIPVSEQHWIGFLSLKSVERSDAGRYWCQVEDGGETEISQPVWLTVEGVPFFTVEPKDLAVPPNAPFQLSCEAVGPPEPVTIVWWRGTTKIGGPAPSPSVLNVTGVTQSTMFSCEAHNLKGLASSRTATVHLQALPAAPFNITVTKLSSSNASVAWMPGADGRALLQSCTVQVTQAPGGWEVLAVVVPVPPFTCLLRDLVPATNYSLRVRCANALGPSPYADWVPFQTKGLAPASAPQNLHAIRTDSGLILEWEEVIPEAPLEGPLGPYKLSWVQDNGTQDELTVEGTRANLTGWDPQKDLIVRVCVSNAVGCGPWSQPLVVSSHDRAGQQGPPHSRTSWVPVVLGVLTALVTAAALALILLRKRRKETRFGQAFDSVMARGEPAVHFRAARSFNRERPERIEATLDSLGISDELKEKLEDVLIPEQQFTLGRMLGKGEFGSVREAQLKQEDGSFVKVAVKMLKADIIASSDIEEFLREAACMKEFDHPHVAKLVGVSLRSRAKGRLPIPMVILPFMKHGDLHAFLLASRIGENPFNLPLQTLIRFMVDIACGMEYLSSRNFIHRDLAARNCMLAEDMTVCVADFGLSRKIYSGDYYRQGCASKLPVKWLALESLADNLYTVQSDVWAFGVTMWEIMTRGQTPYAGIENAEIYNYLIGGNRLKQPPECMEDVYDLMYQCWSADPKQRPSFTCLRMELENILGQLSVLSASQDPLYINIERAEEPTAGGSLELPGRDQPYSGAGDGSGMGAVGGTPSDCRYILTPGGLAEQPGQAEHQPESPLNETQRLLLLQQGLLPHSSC
The test is described as follows: Inhibition of human recombinant TYRO3 at 15 nM in presence of ATP by radiometric assay relative to control.

The target in test [12] is Dual specificity protein kinase CLK2 (Homo sapiens) (UniProt P49760). The test is described as follows: Inhibition of human recombinant CLK2 at 15 nM related to control ULK1.
Chain of Dual specificity protein kinase CLK2 (Homo sapiens) (P49760 whole entry, looked up): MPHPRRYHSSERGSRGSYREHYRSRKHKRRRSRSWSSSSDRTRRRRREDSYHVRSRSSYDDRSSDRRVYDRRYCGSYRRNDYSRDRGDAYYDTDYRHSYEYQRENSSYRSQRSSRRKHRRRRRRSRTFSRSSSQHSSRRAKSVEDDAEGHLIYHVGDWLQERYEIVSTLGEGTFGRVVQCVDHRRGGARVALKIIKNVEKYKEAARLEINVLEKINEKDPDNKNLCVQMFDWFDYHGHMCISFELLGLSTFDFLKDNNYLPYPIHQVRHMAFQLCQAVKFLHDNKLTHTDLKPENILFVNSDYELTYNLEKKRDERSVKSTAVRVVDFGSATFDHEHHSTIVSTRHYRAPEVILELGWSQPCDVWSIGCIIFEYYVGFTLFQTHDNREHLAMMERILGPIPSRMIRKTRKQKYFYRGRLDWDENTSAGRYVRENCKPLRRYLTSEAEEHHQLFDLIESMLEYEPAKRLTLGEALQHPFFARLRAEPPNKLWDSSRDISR

Chain of Mitogen-activated protein kinase kinase kinase kinase 4 (Homo sapiens) (O95819 2-1239 limits assumed): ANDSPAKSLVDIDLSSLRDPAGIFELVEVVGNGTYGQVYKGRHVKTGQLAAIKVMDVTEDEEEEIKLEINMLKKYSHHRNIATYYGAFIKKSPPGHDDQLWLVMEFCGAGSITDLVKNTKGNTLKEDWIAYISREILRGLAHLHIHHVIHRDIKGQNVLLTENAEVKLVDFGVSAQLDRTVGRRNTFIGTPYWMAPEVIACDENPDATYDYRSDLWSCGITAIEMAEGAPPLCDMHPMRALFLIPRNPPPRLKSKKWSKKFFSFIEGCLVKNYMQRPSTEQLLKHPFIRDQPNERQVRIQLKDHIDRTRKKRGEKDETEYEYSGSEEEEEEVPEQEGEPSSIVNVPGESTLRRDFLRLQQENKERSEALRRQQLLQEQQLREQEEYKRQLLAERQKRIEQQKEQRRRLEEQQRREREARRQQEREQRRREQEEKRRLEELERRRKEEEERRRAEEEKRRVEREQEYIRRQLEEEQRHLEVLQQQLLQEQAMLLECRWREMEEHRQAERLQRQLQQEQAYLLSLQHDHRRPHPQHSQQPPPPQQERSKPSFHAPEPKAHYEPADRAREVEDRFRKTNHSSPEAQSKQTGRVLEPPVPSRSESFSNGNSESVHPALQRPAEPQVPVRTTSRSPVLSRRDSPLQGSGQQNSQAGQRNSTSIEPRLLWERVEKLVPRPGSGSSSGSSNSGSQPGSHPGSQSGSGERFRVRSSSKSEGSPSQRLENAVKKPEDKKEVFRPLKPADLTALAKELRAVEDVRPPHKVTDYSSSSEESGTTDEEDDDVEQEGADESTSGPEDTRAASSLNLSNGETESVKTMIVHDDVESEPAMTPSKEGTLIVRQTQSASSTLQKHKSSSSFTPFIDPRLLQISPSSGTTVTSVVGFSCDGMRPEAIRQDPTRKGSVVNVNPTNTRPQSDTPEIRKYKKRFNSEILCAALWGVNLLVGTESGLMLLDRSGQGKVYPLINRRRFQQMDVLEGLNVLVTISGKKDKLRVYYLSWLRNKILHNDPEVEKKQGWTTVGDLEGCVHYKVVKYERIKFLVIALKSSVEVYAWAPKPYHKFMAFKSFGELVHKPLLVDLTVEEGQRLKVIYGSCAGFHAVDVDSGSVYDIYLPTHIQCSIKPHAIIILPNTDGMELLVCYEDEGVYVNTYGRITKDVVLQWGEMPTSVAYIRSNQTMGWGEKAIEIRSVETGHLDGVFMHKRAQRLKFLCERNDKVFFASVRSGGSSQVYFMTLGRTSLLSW
Chain of STE20-like serine/threonine-protein kinase (Homo sapiens) (Q9H2G2 whole entry, looked up): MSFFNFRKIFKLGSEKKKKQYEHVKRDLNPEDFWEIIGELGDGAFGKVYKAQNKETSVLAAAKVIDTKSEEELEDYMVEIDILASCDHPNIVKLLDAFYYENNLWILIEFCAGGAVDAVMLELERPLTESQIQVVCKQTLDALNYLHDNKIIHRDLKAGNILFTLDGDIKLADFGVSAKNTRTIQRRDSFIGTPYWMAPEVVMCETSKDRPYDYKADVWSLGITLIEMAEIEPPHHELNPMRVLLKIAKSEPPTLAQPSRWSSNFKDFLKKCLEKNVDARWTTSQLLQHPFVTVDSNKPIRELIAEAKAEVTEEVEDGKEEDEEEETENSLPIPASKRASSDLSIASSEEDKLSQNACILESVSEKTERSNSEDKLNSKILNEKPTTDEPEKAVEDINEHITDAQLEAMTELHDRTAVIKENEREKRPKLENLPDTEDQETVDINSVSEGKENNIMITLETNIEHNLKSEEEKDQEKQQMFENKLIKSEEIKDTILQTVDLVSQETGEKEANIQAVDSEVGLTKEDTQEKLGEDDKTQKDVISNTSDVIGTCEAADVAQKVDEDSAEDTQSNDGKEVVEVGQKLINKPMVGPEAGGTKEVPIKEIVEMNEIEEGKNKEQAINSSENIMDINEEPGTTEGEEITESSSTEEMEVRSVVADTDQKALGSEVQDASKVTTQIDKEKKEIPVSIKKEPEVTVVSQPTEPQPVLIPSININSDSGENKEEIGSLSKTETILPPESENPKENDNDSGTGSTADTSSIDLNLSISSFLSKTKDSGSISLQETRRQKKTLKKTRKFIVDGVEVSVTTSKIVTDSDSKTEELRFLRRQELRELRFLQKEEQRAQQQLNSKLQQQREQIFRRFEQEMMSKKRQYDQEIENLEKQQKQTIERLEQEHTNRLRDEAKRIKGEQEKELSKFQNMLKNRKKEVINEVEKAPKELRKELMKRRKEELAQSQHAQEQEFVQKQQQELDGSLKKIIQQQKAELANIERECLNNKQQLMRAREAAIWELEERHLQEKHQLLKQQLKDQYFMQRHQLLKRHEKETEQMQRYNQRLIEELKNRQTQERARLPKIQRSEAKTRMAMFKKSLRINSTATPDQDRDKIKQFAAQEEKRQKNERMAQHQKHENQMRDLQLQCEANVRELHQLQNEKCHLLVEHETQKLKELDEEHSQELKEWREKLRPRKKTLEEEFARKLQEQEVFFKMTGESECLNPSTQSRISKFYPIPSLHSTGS
Chain of Cyclin-dependent kinase 7 (Homo sapiens) (P50613 whole entry): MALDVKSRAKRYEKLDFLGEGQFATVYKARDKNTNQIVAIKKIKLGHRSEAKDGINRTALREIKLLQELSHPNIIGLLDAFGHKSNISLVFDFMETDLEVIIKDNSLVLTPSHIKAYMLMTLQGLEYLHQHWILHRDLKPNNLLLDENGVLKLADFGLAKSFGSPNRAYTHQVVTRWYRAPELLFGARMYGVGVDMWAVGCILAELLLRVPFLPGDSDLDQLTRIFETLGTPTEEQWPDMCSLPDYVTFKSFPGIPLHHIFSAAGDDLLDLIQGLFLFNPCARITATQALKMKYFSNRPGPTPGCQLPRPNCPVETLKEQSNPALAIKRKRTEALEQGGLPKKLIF
Chain of Glycogen synthase kinase-3 alpha (Homo sapiens) (P49840 2-483 limits assumed): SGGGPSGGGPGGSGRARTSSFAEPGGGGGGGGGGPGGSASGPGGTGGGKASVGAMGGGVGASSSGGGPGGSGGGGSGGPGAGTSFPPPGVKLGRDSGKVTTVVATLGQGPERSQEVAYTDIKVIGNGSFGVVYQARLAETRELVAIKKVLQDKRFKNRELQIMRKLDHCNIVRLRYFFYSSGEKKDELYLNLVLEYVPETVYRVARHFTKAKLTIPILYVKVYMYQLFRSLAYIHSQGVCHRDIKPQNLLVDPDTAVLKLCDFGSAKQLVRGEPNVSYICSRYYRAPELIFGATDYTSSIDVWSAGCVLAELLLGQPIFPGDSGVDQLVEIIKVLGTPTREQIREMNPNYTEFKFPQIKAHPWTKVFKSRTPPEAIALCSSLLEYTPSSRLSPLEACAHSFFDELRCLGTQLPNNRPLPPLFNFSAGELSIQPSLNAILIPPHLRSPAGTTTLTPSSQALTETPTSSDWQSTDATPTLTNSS
Chain of Serine/threonine-protein kinase 26 (Homo sapiens) (Q9P289 2-416 limits assumed): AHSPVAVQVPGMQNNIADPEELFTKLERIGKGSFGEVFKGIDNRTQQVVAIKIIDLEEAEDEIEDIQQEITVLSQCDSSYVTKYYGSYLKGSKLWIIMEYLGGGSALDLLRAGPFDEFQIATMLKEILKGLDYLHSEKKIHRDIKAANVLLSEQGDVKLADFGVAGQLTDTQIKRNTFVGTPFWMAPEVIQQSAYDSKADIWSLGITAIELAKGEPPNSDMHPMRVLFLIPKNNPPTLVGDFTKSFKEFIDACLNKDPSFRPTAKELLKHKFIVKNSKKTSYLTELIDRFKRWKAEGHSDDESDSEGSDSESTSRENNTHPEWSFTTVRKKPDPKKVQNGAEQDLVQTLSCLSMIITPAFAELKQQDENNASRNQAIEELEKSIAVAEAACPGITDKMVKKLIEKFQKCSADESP
Chain of Mitogen-activated protein kinase 14 (Homo sapiens) (Q16539 whole entry): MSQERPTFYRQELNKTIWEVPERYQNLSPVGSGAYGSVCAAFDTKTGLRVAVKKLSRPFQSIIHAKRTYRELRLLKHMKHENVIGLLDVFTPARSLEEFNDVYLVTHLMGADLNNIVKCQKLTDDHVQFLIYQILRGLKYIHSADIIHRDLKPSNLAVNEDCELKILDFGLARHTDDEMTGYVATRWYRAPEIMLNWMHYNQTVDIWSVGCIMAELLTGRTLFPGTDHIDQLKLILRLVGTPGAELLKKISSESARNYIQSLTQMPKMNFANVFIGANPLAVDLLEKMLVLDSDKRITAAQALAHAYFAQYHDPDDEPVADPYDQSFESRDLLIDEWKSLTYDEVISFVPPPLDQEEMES
Chain of Serine/threonine-protein kinase 32B (Homo sapiens) (Q9NY57 whole entry): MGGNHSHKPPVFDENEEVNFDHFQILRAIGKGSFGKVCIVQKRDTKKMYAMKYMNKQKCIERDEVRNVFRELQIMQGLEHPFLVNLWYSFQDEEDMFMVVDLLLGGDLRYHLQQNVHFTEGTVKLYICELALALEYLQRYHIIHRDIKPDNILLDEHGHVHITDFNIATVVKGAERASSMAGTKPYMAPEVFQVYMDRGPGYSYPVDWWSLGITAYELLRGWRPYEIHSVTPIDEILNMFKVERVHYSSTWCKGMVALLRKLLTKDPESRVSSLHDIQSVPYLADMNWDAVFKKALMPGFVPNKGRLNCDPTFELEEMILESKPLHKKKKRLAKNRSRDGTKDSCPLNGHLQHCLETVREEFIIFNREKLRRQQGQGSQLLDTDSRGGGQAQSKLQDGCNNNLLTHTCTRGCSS

Take `O=C(N[C@@H](C1CC1)C(F)(F)F)c1cc(-c2cnn3cc(-c4ccc(F)cc4)cnc23)cs1`: the inhibition in test [1] was found to be 0%. In addition, the fold change (FC) came out at 0 in test [2], 0 in test [3] and 0.04 in [4].

Consider `CNC(=O)c1ccccc1Oc1nc(Nc2cc(OC)c(OC)c(OC)c2)ncc1Br`, for which the inhibition came out at 29% in [5], 0% in test [6] and 0% in test [7]. The fold change (FC) came to 0 in [8] and 0.07 in [9].

For the molecule `CC(C)[C@H](NC(=O)c1cc(-c2cnn3cc(-c4ccc(OCCN5CCCCC5)cc4)cnc23)cs1)C(F)(F)F`, the inhibition in [10] and in test [11] was 0% throughout. Moreover, the fold change (FC) in test [12] was 0.33.

In general, inhibition refers to how much of the control response was suppressed.
